From US20240391904A1, “DIHYDROPYRIMIDINE BASED COMPOUND, PREPARATION METHOD THEREFOR AND USE OF THEREOF” (CHENGDU SHIBEIKANG BIOMEDICAL TECHNOLOGY CO., LTD., priority 2021, published 2024)
Marks after values point to notes of the source that are not given here.

What was measured:
SD rats = test: Taste disorder test (quinine water versus tap water intake); assay type: in vivo, rat; settings: for effect on the taste sense: 10 mg/kg intravenously, quinine/tap water ratio compared with vehicle group; for Quinine/tap water (%): 10 mg/kg tail intravenous injection, 0-15 min after administration, 0.3 mM quinine hydrochloride water versus tap water
Protocol: Compounds of Examples 1, 9, 12, 15, 16, 24 (synthesized in the laboratory of the present inventor), the positive control drug (gefapixant, batch No: 01030-210326-2-1, purchased from Holder Pharmaceuticals).
0.9% sodium chloride solution for injection, quinine hydrochloride (Quinie, batch No: C12476271)
Healthy adult SD rats, all males, weighing about 280-300 g.
Preparation of 0.3 mM quinine solution: 119.20 mg of quinine hydrochloride was weighed and dissolved in 1000 ml of tap water, and mixed evenly.
Preparation of the test sample solution: 40 mg of a test sample was dissolved in DMSO and a solution of the solubilizer HS-15 was added, mixed evenly, and 16 ml of saline was added to formulate a 2.5 mg/ml solution.
Animal and grouping: male SD rats weighed about 160-180 g each, with 10 of a similar average weight in each group, were housed in seperate cages.
Drinking habit training: each group was given normal drinking water for 30 minutes at 8:30 am and 16:30 pm every day, and no access of water for the rest of the day for 5 days, and two bottles of water were changed every day at the left and right positions.
Administration: with no access to water the night before the experiment, in the following morning the test group was given 4 mL/kg (10 mg/kg) of the test sample by tail intravenous injection, and the model group was given 4 mL/kg (10 mg/kg) of 0.5% HS-15 by intravenous injection.
The animals were allowed to drink freely for 15 min, and the amount of water consumed from the two bottles was measured to the nearest 0.1 ml.
(2) Statistical analysis of the data: the drinking volume of the quinine bitter water and tap water were recorded separately, as well as the percentage of quinine water to the tap water, and the significance of the difference between the groups was determined by ANOVA.

KM mice = test: Mouse cough test (ammonia-induced coughing); assay type: in vivo; settings: for Number of Coughs (time): mice; for cough suppressing effect compared with the positive compound / duration of the cough suppression action: 30 mg/kg; for reduction in the number of coughs at 3 mg/kg: compared with model group; for duration of the cough suppression action: 30 to 120 min after administration
Text: Compounds of Example 1-24 (synthesized in the inventor's laboratory), positive control drug (gefapixant, batch No: 01030-210326-2-1, purchased from Holder Pharmaceuticals), the compound of Comparative Example 1 (synthesized in the inventor's laboratory).
Healthy adult KM mice, half of them are male and half of them are female, 6 per group, weighing about 28-30 g.
Most of the animal coughing models currently reported in the literatures use mechanical, chemical and electrical stimulations to stimulate the nerves and receptors of the animals to trigger coughing. According to the characteristics of the candidate compounds and the existing similar target compounds for reference, the method of concentrated ammonia induction was initially chosen to establish the cough modeling test in mice.
Preparation of 50% ammonia solution: 2.5 ml of ammonia was dissolved in […] of a 0.9% sodium chloride solution for injection and mixed evenly.
Preparation of a solution of the compound of Comparative Example 1: 9 mg of the compound of Comparative Example 1 was weighed and dissolved in 3 ml of a 0.5% CMC-Na solution, and mixed evenly to prepare a 3 mg/ml solution.
Preparation of a solution of the example compounds: 9 mg of the example compound was weighed and dissolved in 3 ml of a 0.5% CMC-Na solution, and mixed evenly to prepare a 3 mg/ml solution.
Grouping: a positive control group, a Comparative Example 1 group, Example 1 group-Example 24 group, and a model group were set up. Six KM mice were taken from each group and administered by gavage; here, the Comparative Example 1 group was given the compound of Comparative Example 1, the positive control group was given the positive control drug (gefapixant, commercially purchased), the Example groups were given the compounds prepared in the corresponding Examples, with each group given one of three dosages: 30 mg/kg, […], and 3 mg/kg; and the model group was given the same volume of 0.5% CMC-Na solution.
30 min, 60 min or 120 min after administration, the mice were placed in a 500 ml beaker with a cotton ball (weight 100±5 mg) containing 0.3 ml of 50% ammonia.
(1) Judgment criteria of coughing: coughing was manifest in contraction of abdominal muscles or chest contraction, with mouth wide opening and a coughing sound.
(2) The number of coughs (times) within 3 min was recorded with a stopwatch, and the data were statistically analyzed by software, with the data in each group shown in mean±standard deviation. A one-way analysis of variance among the groups was conducted, and P<0.05 was considered a difference having a statistical significance.

[1] = cited from earlier work
human P2X3 receptor = target: T1, human P2X3 receptor (Homo sapiens, UniProt P56373); test: In vitro bioactivity evaluation: FLIPR antagonist mode, HEK 293 cells stably transfected with human P2X3 receptor, BZATP agonist
T1 sequence (P56373 1-397): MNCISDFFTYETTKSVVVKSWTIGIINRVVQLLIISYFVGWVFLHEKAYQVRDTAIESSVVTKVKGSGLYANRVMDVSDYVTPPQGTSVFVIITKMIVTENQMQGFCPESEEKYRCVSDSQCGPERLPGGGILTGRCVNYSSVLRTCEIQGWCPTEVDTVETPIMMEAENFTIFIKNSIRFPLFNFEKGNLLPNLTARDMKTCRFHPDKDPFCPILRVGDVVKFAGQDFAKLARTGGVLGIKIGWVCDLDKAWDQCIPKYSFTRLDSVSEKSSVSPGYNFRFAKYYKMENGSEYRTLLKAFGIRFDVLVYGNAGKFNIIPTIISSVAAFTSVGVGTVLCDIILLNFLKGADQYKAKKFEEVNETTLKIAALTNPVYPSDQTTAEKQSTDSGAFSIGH
Protocol: Cell culture medium: DMEM high glucose; 10% FBS; 1% PenStrep.
The Petri dish was placed in an incubator for 1-3 minutes or until the cells were digested, 3 mL of a complete medium was then added to terminate the digestion, and the cell density was determined by a cell counter. • 2) After centrifugation at 1000 rpm/min for 5 min, the cells were resuspended in a growth medium and the volume of the suspension was adjusted to reach a cell density of 4×10^5 cells/mL (1×10^4 cells/25 μL). • 3) 10 μL of 5× Matrigel was added into a black microplate, and the microplate was placed in an incubator for 15 min. The microplate was removed and invertedly centrifuged at 300 g/min for 30 s to remove the 5× Matrigel.

[2] = 10 mg/kg by gavage, 60 min after administration, coughs within 3 min
[3] = 30 mg/kg by gavage, 30 min after administration, coughs within 3 min, ammonia-induced
[4] = 30 mg/kg by gavage, 60 min after administration, coughs within 3 min (Table 5)
[5] = 3 mg/kg by gavage, 60 min after administration, coughs within 3 min
[6] = 30 mg/kg by gavage, 60 min after administration, coughs within 3 min (Table 6)
[7] = 30 mg/kg by gavage, 120 min after administration, coughs within 3 min

Row | SMILES | effect on the taste sense (SD rats) | Quinine/tap water (%) (SD rats) | IC50 (human P2X3 receptor) | cough suppressing efficacy at 10 mg/kg (KM mice; 60 min after administration) | Number of Coughs (time) (KM mice; [2]) | Number of Coughs (time) (KM mice; [3]) | Number of Coughs (time) (KM mice; [4]) | primary efficacy endpoint ([1]; 15 mg twice a day) | 24-hour cough frequency ([1]; 45 mg twice a day, Week 12 (COUGH-1) and Week 24 (COUGH-2), compared to placebo) | discontinuation due to adverse events ([1]; 45 mg) | taste-related adverse events ([1]; 45 mg) | cough suppressing effect compared with the positive compound (KM mice; 30 min after administration) | reduction in the number of coughs at 3 mg/kg (KM mice; 60 min after administration) | duration of the cough suppression action (KM mice) | Number of Coughs (time) (KM mice; [5]) | Number of Coughs (time) (KM mice; [6]) | Number of Coughs (time) (KM mice; [7])
1 | C[C@@H](Cn1c(=O)cc(Nc2ccc(Oc3cccc(F)n3)cc2)n(Cc2ccc(Cl)cc2)c1=O)C(=O)NS(C)(=O)=O [Compound 24] | little or no effect on the taste sense | 39.61%^Δ | < 10 nM | improved cough suppressing efficacy than the positive control drug | 24.14**^Δ time | 17.07** time | 21.33** time |  |  |  |  | stronger than that of the positive compound | statistically significant (P<0.01) reduction in the number of coughs | significantly prolonged compared with that of the compound of Comparative Example 1 | 25.45** time | 21.33** time | 25.14**^Δ time
2 | CC(C)(Cn1c(=O)cc(Nc2ccc(Oc3ccccn3)cc2)n(Cc2ccc(Cl)cc2)c1=O)C(=O)NS(C)(=O)=O [Compound 12] | little or no effect on the taste sense | 37.18%^Δ | < 10 nM | improved cough suppressing efficacy than the positive control drug | 21.17**^Δ time | 15.67** time | 17.17** time |  |  |  |  | stronger than that of the positive compound |  | significantly prolonged compared with that of the compound of Comparative Example 1 | 33.17 time | 17.17** time | 20.17*^Δ time
3 | CS(=O)(=O)NC(=O)C1(Cn2c(=O)cc(Nc3ccc(Oc4ccccn4)cc3)n(Cc3ccc(Cl)cc3)c2=O)CC1 [Compound 15] | little or no effect on the taste sense | 40.22%^Δ | 10.1 to 50 nM | improved cough suppressing efficacy than the positive control drug | 20.83**^Δ time | 18.64** time | 16.33** time |  |  |  |  | stronger than that of the positive compound | statistically significant (P<0.01) reduction in the number of coughs | significantly prolonged compared with that of the compound of Comparative Example 1 | 24.83** time | 16.33** time | 23.83**^Δ time

Second part, led by results:

Row | effect on the taste sense (SD rats) | Quinine/tap water (%) (SD rats) | IC50 (human P2X3 receptor) | SMILES | cough suppressing efficacy at 10 mg/kg (KM mice; 60 min after administration) | Number of Coughs (time) (KM mice; [2]) | Number of Coughs (time) (KM mice; [3]) | Number of Coughs (time) (KM mice; [4]) | primary efficacy endpoint ([1]; 15 mg twice a day) | 24-hour cough frequency ([1]; 45 mg twice a day, Week 12 (COUGH-1) and Week 24 (COUGH-2), compared to placebo) | discontinuation due to adverse events ([1]; 45 mg) | taste-related adverse events ([1]; 45 mg) | cough suppressing effect compared with the positive compound (KM mice; 30 min after administration) | reduction in the number of coughs at 3 mg/kg (KM mice; 60 min after administration) | duration of the cough suppression action (KM mice) | Number of Coughs (time) (KM mice; [5]) | Number of Coughs (time) (KM mice; [6]) | Number of Coughs (time) (KM mice; [7])
4 | significant effect on the taste sense | 79.01%** |  | COc1cc(C(C)C)c(Oc2cnc(N)nc2N)cc1S(N)(=O)=O [Positive control, gefapixant, reference compound] | did not have a significant effect in reducing coughs | 38.83 time | 20.33* time | 23.83** time | not met | statistically significant reduction | higher frequency | higher incidence |  |  |  |  |  | 
5 | little or no effect on the taste sense | 41.48%^Δ | < 10 nM | COC(=O)[C@@H](C)Cn1c(=O)cc(Nc2ccc(Oc3cnccn3)cc2)n(Cc2ccc(Cl)cc2)c1=O [Compound 1] |  |  | 15.33** time |  |  |  |  |  | stronger than that of the positive compound |  |  |  |  | 
6 | little or no effect on the taste sense | 42.53%^Δ | < 10 nM | C[C@@H](Cn1c(=O)cc(Nc2ccc(Oc3ncccc3F)cc2)n(Cc2ccc(Cl)cc2)c1=O)C(=O)NS(C)(=O)=O [Compound 16, (S)-3-(3-(4-chlorobenzyl)-4-(4-(3-(3-fluoropyridin-2-yl)oxyphenyl)amino)-2,6-dioxo-3,6-dihydropyrimidin-1(2H)yl)-2-methyl-N-(methylsulfonyl)propionamide group] | improved cough suppressing efficacy than the positive control drug | 15.13**^Δ time | 19.34** time | 16.11** time |  |  |  |  |  | statistically significant (P<0.01) reduction in the number of coughs | significantly prolonged compared with that of the compound of Comparative Example 1 | 23.81** time | 16.11** time | 18.13**^Δ time
7 | little or no effect on the taste sense | 39.84%^Δ | 10.1 to 50 nM | C[C@@H](Cn1c(=O)cc(Nc2ccc(Oc3ccccn3)cc2)n(Cc2ccc(Cl)cc2)c1=O)C(=O)NS(C)(=O)=O [Compound 9] | improved cough suppressing efficacy than the positive control drug | 19.54**^Δ time | 13.62** time | 16.33** time |  |  |  |  | stronger than that of the positive compound | statistically significant (P<0.01) reduction in the number of coughs | significantly prolonged compared with that of the compound of Comparative Example 1 | 25.37** time | 16.33** time | 23.83**^Δ time
